Data as given in the supplement of paper PMC10307832.

Key:
Test in all cases: relative viability (nuclei count vs DMSO), 5 days (fraction); higher = more cells survive
NCI-H441 = test system: NCI-H441
Procedure, shortened: (§1)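 Nuclei were stained with Hoechst during a one-step fixation (final 0.05% Triton X-100, 1% formaldehyde, 1 ug/ml Hoechst) carried out 5 days after dosing, then counted on 4× images. The cells, lung cancer lines in 1536-well plates, had been dosed by pin tool the day after seeding with one drug alone or a fixed anchor-drug dose plus five library-drug doses (not always all listed) in √10 steps. Relative viability is the nuclei count in treated wells divided by that in vehicle wells, and each value is the median of duplicate plates.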

H3255 = test system: H3255
Procedure, shortened: as §1

NCI-H2342 = test system: NCI-H2342
Procedure, shortened: as §1

EKVX = test system: EKVX
Procedure, shortened: as §1

SK-MES-1 = test system: SK-MES-1
Procedure, shortened: as §1

NCI-H2085 = test system: NCI-H2085
Procedure, shortened: as §1

CAL-12T = test system: CAL-12T
Procedure, shortened: as §1

NCI-H2087 = test system: NCI-H2087
Procedure, shortened: as §1

NCI-H1993 = test system: NCI-H1993
Procedure, shortened: as §1

COR-L 105 = test system: COR-L 105
Procedure, shortened: as §1

HCC-827 = test system: HCC-827
Procedure, shortened: as §1

NCI-H1792 = test system: NCI-H1792
Procedure, shortened: as §1

ABC-1 = test system: ABC-1
Procedure, shortened: as §1

NCI-H1355 = test system: NCI-H1355
Procedure, shortened: as §1

NCI-H2009 = test system: NCI-H2009
Procedure, shortened: as §1

EPLC-272H = test system: EPLC-272H
Procedure, shortened: as §1

NCI-H1975 = test system: NCI-H1975
Procedure, shortened: as §1

NCI-H2228 = test system: NCI-H2228
Procedure, shortened: as §1

HCC-366 = test system: HCC-366
Procedure, shortened: as §1

ChaGo-K-1 = test system: ChaGo-K-1
Procedure, shortened: as §1

NCI-H460 = test system: NCI-H460
Procedure, shortened: as §1

NCI-H322M = test system: NCI-H322M
Procedure, shortened: as §1

Cc1cn(-c2cc(NC(=O)c3ccc(C)c(Nc4nccc(-c5cccnc5)n4)c3)cc(C(F)(F)F)c2)cn1 [Nilotinib] + Cc1nc(Nc2ncc(C(=O)Nc3c(C)cccc3Cl)s2)cc(N2CCN(CCO)CC2)n1 [Dasatinib] (partner 0.075 µM)
relative viability (NCI-H441; first compound 0.001 µM): 0.523
relative viability (NCI-H441; first compound 0.003162 µM): 0.712
relative viability (NCI-H441; first compound 0.01 µM): 0.632
relative viability (NCI-H441; first compound 0.03162 µM): 0.369
relative viability (NCI-H441; first compound 0.1 µM): 0.417
relative viability (H3255; first compound 0.001 µM): 0.381
relative viability (H3255; first compound 0.003162 µM): 0.325
relative viability (H3255; first compound 0.03162 µM): 0.316
relative viability (H3255; first compound 0.1 µM): 0.304
relative viability (NCI-H2342; first compound 0.001 µM): 0.277
relative viability (NCI-H2342; first compound 0.003162 µM): 0.303
relative viability (NCI-H2342; first compound 0.01 µM): 0.302
relative viability (NCI-H2342; first compound 0.03162 µM): 0.273
relative viability (NCI-H2342; first compound 0.1 µM): 0.298
relative viability (EKVX; first compound 0.001 µM): 0.461
relative viability (EKVX; first compound 0.003162 µM): 0.477
relative viability (EKVX; first compound 0.01 µM): 0.554
relative viability (EKVX; first compound 0.03162 µM): 0.467
relative viability (EKVX; first compound 0.1 µM): 0.432
relative viability (SK-MES-1; first compound 0.001 µM): 0.306
relative viability (SK-MES-1; first compound 0.003162 µM): 0.334
relative viability (SK-MES-1; first compound 0.01 µM): 0.308
relative viability (SK-MES-1; first compound 0.03162 µM): 0.29
relative viability (SK-MES-1; first compound 0.1 µM): 0.207
relative viability (NCI-H2085; first compound 0.001 µM): 0.28
relative viability (NCI-H2085; first compound 0.003162 µM): 0.198
relative viability (NCI-H2085; first compound 0.01 µM): 0.179
relative viability (NCI-H2085; first compound 0.03162 µM): 0.231
relative viability (NCI-H2085; first compound 0.1 µM): 0.248
relative viability (CAL-12T; first compound 0.001 µM): 0.376
relative viability (CAL-12T; first compound 0.003162 µM): 0.387
relative viability (CAL-12T; first compound 0.01 µM): 0.456
relative viability (CAL-12T; first compound 0.03162 µM): 0.178
relative viability (CAL-12T; first compound 0.1 µM): 0.137
relative viability (NCI-H2087; first compound 0.001 µM): 0.821
relative viability (NCI-H2087; first compound 0.003162 µM): 1.33
relative viability (NCI-H2087; first compound 0.01 µM): 1.13
relative viability (NCI-H2087; first compound 0.03162 µM): 0.357
relative viability (NCI-H2087; first compound 0.1 µM): 0.203
relative viability (NCI-H1993; first compound 0.001 µM): 0.625
relative viability (NCI-H1993; first compound 0.003162 µM): 0.546
relative viability (NCI-H1993; first compound 0.01 µM): 0.495
relative viability (NCI-H1993; first compound 0.03162 µM): 0.516
relative viability (NCI-H1993; first compound 0.1 µM): 0.627
relative viability (COR-L 105; first compound 0.001 µM): 0.374
relative viability (COR-L 105; first compound 0.003162 µM): 0.357
relative viability (COR-L 105; first compound 0.01 µM): 0.297
relative viability (COR-L 105; first compound 0.03162 µM): 0.345
relative viability (COR-L 105; first compound 0.1 µM): 0.222
relative viability (HCC-827; first compound 0.001 µM): 0.301
relative viability (HCC-827; first compound 0.003162 µM): 0.308
relative viability (HCC-827; first compound 0.01 µM): 0.329
relative viability (HCC-827; first compound 0.03162 µM): 0.283
relative viability (HCC-827; first compound 0.1 µM): 0.284
relative viability (NCI-H1792; first compound 0.001 µM): 0.614
relative viability (NCI-H1792; first compound 0.003162 µM): 0.591
relative viability (NCI-H1792; first compound 0.01 µM): 0.785
relative viability (NCI-H1792; first compound 0.1 µM): 1.36
relative viability (ABC-1; first compound 0.001 µM): 0.557
relative viability (ABC-1; first compound 0.003162 µM): 0.637
relative viability (ABC-1; first compound 0.01 µM): 0.643
relative viability (ABC-1; first compound 0.03162 µM): 0.554
relative viability (ABC-1; first compound 0.1 µM): 0.24
relative viability (NCI-H1355; first compound 0.001 µM): 0.653
relative viability (NCI-H1355; first compound 0.003162 µM): 0.751
relative viability (NCI-H1355; first compound 0.01 µM): 0.556
relative viability (NCI-H1355; first compound 0.03162 µM): 0.46
relative viability (NCI-H1355; first compound 0.1 µM): 0.333
relative viability (NCI-H2009; first compound 0.001 µM): 0.278
relative viability (NCI-H2009; first compound 0.003162 µM): 0.258
relative viability (NCI-H2009; first compound 0.01 µM): 0.261
relative viability (NCI-H2009; first compound 0.03162 µM): 0.212
relative viability (NCI-H2009; first compound 0.1 µM): 0.199
relative viability (EPLC-272H; first compound 0.001 µM): 0.303
relative viability (EPLC-272H; first compound 0.003162 µM): 0.343
relative viability (EPLC-272H; first compound 0.01 µM): 0.364
relative viability (EPLC-272H; first compound 0.03162 µM): 0.226
relative viability (EPLC-272H; first compound 0.1 µM): 0.107
relative viability (NCI-H1975; first compound 0.001 µM): 0.312
relative viability (NCI-H1975; first compound 0.003162 µM): 0.39
relative viability (NCI-H1975; first compound 0.01 µM): 0.309
relative viability (NCI-H1975; first compound 0.03162 µM): 0.318
relative viability (NCI-H1975; first compound 0.1 µM): 0.209
relative viability (NCI-H2228; first compound 0.003162 µM): 0.622
relative viability (NCI-H2228; first compound 0.01 µM): 0.628
relative viability (NCI-H2228; first compound 0.03162 µM): 0.424
relative viability (NCI-H2228; first compound 0.1 µM): 0.159
relative viability (HCC-366; first compound 0.001 µM): 0.614
relative viability (HCC-366; first compound 0.003162 µM): 0.938
relative viability (HCC-366; first compound 0.01 µM): 0.958
relative viability (HCC-366; first compound 0.03162 µM): 0.4
relative viability (HCC-366; first compound 0.1 µM): 0.181
relative viability (ChaGo-K-1; first compound 0.001 µM): 0.521
relative viability (ChaGo-K-1; first compound 0.003162 µM): 0.598
relative viability (ChaGo-K-1; first compound 0.01 µM): 0.634
relative viability (ChaGo-K-1; first compound 0.03162 µM): 0.372
relative viability (ChaGo-K-1; first compound 0.1 µM): 0.331
relative viability (NCI-H460; first compound 0.001 µM): 0.487
relative viability (NCI-H460; first compound 0.003162 µM): 0.384
relative viability (NCI-H460; first compound 0.01 µM): 0.65
relative viability (NCI-H460; first compound 0.03162 µM): 0.444
relative viability (NCI-H460; first compound 0.1 µM): 0.432
relative viability (NCI-H322M; first compound 0.001 µM): 0.295
relative viability (NCI-H322M; first compound 0.003162 µM): 0.279
relative viability (NCI-H322M; first compound 0.03162 µM): 0.282
relative viability (NCI-H322M; first compound 0.1 µM): 0.234
